In ChEMBL document CHEMBL4507276 (2021):

Columns and labels:
[1] = target: 5-hydroxytryptamine receptor 6 (Homo sapiens) (UniProt P50406); assay: 5HT6/H Cerep selectivity data (BI); settings: Compound concentration 20.0 uM
[2] = target: Type-2 angiotensin II receptor (Homo sapiens) (UniProt P50052); assay: AT2/H Cerep selectivity data (BI); settings: Compound concentration 20.0 uM
[3] = target: Vasopressin V1a receptor (Homo sapiens) (UniProt P37288); assay: V1A/HUM Cerep selectivity data (BI); settings: Compound concentration 20.0 uM
[4] = target: Gamma-aminobutyric acid receptor subunit alpha-1 (Rattus norvegicus) (UniProt P62813); assay: GABAA MUSCIMOL CENT Eurofins-Panlabs selectivity data (BI); settings: Compound concentration 10.0 uM
[5] = target: Neuropeptide Y receptor type 1 (Homo sapiens) (UniProt P25929); assay: Y1/HU Eurofins-Panlabs selectivity data (BI); settings: Compound concentration 10.0 uM
[6] = target: Bone morphogenetic protein receptor type-1A (Homo sapiens) (UniProt P36894); assay: BMPR1A(ALK3) Invitrogen selectivity data (BI); settings: Compound concentration 3.0 uM
[7] = target: Calcium/calmodulin-dependent protein kinase type II subunit beta (Homo sapiens) (UniProt Q13554); assay: CAMK2B Invitrogen selectivity data (BI); settings: Compound concentration 3.0 uM
[8] = target: Cyclin-dependent kinase 2/cyclin A (Homo sapiens) (UniProt P24941+P20248+P78396); assay: CDK2/CYCLINA Invitrogen selectivity data (BI); assay type: protein-complex assay; settings: Compound concentration 3.0 uM
[9] = target: CDK8/Cyclin C (Homo sapiens) (UniProt P49336+P24863); assay: CDK8_CYCLINC Invitrogen selectivity data (BI); assay type: protein-complex assay; settings: Compound concentration 3.0 uM
[10] = target: Dual specificity tyrosine-phosphorylation-regulated kinase 1B (Homo sapiens) (UniProt Q9Y463); assay: DYRK1B Invitrogen selectivity data (BI); settings: Compound concentration 3.0 uM
[11] = target: Fibroblast growth factor receptor 3 (Homo sapiens) (UniProt P22607); assay: FGFR3 Invitrogen selectivity data (BI); settings: Compound concentration 3.0 uM
[12] = target: Tyrosine-protein kinase Fgr (Homo sapiens) (UniProt P09769); assay: FGR Invitrogen selectivity data (BI); settings: Compound concentration 3.0 uM
[13] = test system: Mast/stem cell growth factor receptor Kit (Homo sapiens), P10721 [V654A]; assay: KIT_V654A Invitrogen selectivity data (BI); settings: Compound concentration 3.0 uM
[14] = target: Serine/threonine-protein kinase MARK2 (Homo sapiens) (UniProt Q7KZI7); assay: MARK2 Invitrogen selectivity data (BI); settings: Compound concentration 3.0 uM
[15] = test system: Platelet-derived growth factor receptor alpha (Homo sapiens), P16234 [D842V]; assay: PDGFRA D842V Invitrogen selectivity data (BI); settings: Compound concentration 3.0 uM
[16] = target: cAMP-dependent protein kinase catalytic subunit alpha (Homo sapiens) (UniProt P17612); assay: PRKACA Invitrogen selectivity data (BI); settings: Compound concentration 3.0 uM
[17] = target: Protein kinase C theta type (Homo sapiens) (UniProt Q04759); assay: PRKCQ Invitrogen selectivity data (BI); settings: Compound concentration 3.0 uM
[18] = target: Protein-tyrosine kinase 2-beta (Homo sapiens) (UniProt Q14289); assay: PTK2B Invitrogen selectivity data (BI); settings: Compound concentration 3.0 uM
[19] = target: Ribosomal protein S6 kinase alpha-1 (Homo sapiens) (UniProt Q15418); assay: RPS6KA1 Invitrogen selectivity data (BI); settings: Compound concentration 3.0 uM
[20] = target: T1, Serine/threonine-protein kinase Sgk3 (Homo sapiens) (UniProt Q96BR1); assay: SGKL Invitrogen selectivity data (BI); settings: Compound concentration 3.0 uM
T1 sequence (whole entry): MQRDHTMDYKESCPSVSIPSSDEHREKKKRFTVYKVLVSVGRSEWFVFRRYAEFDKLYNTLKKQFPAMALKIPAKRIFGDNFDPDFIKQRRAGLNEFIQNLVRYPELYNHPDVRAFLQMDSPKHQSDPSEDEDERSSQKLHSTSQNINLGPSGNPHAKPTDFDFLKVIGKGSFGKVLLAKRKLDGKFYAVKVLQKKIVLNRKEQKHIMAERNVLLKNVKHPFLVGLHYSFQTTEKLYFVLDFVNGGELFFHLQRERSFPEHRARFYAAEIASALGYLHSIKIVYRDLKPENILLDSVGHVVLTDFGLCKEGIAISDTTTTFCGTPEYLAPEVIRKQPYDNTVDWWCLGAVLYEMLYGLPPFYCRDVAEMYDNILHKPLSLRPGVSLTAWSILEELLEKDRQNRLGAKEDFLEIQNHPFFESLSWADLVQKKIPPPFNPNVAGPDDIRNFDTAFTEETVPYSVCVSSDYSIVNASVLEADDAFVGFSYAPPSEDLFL

[21] = target: T2, Tyrosine-protein kinase ZAP-70 (Homo sapiens) (UniProt P43403); assay: ZAP70 Invitrogen selectivity data (BI); settings: Compound concentration 3.0 uM
T2 sequence (whole entry): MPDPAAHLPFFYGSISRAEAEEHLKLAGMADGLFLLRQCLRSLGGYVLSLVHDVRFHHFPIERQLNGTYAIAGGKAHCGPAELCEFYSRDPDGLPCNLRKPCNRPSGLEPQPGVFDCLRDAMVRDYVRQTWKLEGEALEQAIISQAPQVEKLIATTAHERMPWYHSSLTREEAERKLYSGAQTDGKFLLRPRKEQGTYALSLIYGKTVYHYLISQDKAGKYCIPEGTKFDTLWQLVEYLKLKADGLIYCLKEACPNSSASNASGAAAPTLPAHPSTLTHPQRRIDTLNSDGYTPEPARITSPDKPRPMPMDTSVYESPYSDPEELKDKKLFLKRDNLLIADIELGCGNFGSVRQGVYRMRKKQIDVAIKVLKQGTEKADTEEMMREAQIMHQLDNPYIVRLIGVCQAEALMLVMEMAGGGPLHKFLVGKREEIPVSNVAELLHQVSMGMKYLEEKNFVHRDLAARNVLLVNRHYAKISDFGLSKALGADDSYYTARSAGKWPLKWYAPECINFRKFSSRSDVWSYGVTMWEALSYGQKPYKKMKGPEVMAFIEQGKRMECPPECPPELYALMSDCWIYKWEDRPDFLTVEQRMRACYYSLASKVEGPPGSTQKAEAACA

[22] = target: T3, Muscarinic acetylcholine receptor M1 (Homo sapiens) (UniProt P11229); settings: Compound concentration 10.0 uM
T3 sequence (whole entry): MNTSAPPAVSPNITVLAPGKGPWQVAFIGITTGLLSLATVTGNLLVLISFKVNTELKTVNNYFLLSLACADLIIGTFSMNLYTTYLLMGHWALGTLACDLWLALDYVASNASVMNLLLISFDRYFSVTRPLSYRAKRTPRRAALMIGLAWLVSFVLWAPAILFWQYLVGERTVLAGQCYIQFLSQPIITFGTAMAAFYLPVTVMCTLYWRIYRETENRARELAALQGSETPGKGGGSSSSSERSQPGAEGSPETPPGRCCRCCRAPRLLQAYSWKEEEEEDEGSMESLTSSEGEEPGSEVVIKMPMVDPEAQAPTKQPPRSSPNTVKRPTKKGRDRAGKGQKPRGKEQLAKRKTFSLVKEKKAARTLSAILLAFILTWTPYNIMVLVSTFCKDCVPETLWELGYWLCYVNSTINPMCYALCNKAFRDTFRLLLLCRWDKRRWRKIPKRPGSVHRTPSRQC

Dual specificity tyrosine-phosphorylation-regulated kinase 1B (Homo sapiens), sequence (Q9Y463 whole entry, looked up): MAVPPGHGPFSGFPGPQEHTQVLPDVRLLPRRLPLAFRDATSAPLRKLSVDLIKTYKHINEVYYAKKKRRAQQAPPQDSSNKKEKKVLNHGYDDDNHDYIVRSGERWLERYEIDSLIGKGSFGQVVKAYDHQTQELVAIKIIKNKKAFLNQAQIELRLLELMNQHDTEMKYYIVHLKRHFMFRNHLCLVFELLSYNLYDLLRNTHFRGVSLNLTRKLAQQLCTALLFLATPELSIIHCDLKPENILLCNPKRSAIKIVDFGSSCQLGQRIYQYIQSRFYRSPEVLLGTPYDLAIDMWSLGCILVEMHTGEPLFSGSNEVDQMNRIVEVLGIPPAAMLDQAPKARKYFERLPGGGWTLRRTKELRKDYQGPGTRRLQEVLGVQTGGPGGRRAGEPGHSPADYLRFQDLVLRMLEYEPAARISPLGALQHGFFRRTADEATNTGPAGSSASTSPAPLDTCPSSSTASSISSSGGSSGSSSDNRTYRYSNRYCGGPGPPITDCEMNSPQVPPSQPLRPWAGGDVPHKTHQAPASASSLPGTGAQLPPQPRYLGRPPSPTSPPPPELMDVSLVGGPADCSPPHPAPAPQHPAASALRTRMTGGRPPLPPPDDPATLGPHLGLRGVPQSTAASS
Platelet-derived growth factor receptor alpha (Homo sapiens), P16234 [D842V], sequence (P16234 whole entry D842V): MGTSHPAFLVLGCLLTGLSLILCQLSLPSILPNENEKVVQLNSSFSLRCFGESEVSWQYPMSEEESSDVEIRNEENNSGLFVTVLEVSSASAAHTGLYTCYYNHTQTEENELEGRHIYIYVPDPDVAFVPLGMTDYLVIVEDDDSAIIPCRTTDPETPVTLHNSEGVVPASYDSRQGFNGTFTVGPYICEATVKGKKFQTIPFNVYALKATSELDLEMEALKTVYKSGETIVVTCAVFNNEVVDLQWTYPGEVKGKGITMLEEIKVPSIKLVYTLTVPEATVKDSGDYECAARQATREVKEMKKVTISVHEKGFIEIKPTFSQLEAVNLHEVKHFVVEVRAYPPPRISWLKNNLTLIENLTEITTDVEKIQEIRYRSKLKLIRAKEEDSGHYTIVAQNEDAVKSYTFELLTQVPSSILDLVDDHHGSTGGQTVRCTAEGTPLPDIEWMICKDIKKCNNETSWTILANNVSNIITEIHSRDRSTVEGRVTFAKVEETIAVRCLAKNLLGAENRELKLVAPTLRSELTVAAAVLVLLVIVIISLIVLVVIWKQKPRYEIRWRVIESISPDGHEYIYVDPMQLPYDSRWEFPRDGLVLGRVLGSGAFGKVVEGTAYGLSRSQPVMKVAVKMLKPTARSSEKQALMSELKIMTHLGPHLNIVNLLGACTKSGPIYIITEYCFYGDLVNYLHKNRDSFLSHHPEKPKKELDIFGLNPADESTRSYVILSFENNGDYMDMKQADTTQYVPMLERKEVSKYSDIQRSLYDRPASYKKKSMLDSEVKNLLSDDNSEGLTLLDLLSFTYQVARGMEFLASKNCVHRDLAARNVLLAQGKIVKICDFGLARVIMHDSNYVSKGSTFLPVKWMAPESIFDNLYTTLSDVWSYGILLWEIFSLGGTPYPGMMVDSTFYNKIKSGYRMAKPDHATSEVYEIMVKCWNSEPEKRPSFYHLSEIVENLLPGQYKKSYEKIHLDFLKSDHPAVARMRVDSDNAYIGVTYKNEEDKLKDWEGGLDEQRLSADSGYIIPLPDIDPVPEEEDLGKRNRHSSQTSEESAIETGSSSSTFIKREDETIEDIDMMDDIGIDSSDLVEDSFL
Protein-tyrosine kinase 2-beta (Homo sapiens), sequence (Q14289 whole entry, looked up): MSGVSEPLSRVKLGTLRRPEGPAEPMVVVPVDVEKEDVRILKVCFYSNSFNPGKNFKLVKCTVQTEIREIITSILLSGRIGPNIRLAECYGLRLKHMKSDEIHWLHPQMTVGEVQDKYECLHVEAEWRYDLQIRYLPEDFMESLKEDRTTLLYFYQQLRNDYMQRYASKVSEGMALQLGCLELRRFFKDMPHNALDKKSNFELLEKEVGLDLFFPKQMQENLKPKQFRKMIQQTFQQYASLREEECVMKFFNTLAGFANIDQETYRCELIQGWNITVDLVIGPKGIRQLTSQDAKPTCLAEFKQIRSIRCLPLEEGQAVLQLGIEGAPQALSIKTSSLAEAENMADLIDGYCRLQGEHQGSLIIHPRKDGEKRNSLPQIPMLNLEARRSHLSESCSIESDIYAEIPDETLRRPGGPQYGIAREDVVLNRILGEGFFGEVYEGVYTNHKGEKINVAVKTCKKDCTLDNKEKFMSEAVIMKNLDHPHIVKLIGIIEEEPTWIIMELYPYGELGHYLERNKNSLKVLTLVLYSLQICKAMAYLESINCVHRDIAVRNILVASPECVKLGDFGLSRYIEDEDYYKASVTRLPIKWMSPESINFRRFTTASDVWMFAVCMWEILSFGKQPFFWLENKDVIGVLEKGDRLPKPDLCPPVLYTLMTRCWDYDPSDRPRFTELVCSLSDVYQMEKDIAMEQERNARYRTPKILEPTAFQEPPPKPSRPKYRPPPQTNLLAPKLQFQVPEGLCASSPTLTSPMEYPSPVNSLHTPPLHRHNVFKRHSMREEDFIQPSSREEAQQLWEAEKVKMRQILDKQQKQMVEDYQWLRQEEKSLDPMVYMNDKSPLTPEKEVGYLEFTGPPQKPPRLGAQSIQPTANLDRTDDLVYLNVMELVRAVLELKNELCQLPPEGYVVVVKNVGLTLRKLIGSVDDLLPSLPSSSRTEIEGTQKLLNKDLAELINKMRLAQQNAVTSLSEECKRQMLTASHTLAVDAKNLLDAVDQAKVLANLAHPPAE
Mast/stem cell growth factor receptor Kit (Homo sapiens), P10721 [V654A], sequence (P10721 whole entry V654A): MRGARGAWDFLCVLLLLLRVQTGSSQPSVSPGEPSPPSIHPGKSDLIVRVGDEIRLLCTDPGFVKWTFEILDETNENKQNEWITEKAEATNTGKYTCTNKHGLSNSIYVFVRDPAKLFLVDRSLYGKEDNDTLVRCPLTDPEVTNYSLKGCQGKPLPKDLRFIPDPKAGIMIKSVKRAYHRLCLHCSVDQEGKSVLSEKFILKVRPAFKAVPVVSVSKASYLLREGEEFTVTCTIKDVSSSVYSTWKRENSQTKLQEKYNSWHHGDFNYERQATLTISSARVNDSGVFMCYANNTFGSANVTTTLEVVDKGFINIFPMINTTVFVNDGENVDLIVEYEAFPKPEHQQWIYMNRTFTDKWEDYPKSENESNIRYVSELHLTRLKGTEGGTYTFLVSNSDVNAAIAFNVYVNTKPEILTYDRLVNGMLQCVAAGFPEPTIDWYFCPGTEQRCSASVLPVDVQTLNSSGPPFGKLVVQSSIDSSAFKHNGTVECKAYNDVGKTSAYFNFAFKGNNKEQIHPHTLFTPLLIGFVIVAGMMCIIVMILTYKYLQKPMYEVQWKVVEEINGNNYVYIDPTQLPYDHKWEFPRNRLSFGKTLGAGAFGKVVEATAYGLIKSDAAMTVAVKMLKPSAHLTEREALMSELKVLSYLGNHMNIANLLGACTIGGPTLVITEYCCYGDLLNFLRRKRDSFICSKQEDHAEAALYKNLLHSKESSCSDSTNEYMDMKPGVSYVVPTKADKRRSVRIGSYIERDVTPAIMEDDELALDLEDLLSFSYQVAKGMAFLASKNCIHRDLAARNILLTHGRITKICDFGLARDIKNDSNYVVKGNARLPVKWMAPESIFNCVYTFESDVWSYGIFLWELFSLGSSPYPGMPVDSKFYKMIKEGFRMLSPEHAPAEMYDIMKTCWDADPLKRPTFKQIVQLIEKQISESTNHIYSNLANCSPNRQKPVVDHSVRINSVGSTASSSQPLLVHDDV
Calcium/calmodulin-dependent protein kinase type II subunit beta (Homo sapiens), sequence (Q13554 whole entry): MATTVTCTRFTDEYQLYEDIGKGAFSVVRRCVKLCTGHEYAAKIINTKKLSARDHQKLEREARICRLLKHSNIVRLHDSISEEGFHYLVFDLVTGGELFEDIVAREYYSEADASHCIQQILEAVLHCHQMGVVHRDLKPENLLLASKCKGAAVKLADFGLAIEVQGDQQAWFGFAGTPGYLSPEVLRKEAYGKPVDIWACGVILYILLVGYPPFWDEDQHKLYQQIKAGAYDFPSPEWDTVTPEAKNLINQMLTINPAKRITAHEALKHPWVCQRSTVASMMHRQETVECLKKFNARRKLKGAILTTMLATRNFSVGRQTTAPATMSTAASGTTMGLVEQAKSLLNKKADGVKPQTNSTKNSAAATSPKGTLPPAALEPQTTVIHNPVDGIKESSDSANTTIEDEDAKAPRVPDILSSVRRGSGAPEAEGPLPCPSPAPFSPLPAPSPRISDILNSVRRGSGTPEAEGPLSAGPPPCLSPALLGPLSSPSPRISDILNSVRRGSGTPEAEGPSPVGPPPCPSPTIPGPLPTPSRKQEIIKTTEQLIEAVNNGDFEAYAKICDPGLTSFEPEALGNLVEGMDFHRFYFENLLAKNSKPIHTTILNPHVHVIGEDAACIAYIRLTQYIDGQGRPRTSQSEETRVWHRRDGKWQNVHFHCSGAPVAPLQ
Ribosomal protein S6 kinase alpha-1 (Homo sapiens), sequence (Q15418 whole entry): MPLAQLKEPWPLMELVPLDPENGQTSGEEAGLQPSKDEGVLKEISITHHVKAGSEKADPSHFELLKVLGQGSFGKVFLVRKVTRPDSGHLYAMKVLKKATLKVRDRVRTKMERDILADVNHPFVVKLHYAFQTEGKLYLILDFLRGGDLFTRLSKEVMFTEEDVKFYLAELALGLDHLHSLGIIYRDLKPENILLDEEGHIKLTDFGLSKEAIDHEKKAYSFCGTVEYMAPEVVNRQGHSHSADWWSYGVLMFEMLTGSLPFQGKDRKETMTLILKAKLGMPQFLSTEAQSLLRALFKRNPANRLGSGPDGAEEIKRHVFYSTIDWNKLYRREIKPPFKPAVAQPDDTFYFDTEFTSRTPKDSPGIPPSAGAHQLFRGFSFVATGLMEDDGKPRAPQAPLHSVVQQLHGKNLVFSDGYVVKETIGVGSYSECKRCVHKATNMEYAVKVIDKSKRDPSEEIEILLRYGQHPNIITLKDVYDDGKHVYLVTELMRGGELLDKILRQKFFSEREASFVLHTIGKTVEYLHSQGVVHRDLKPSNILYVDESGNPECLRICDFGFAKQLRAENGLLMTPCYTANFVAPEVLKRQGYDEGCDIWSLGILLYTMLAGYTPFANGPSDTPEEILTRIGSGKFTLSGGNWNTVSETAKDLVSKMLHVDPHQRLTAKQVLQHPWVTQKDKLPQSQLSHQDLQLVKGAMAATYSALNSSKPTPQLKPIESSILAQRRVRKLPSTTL

CN(C)C(=O)Cn1cc(-c2nc([C@@](C)(c3ccc(-c4cnc(N)nc4)cc3)C3CC3)no2)cn1 [BI 665915]
inactive: residual activity [1] 95% | residual activity [2] 98% | residual activity [3] 50% | residual activity [4] 100% | residual activity [5] 109% | residual activity [6] 87% | residual activity [7] 95% | residual activity [8] 100% | residual activity [9] 94% | residual activity [10] 104% | residual activity [11] 95.5% | residual activity [12] 90.5% | residual activity [13] 95% | residual activity [14] 98.5% | residual activity [15] 95% | residual activity [16] 104% | residual activity [17] 93.5% | residual activity [18] 86% | residual activity [19] 96% | residual activity [20] 101% | residual activity [21] 96% | inhibition [22] -4.93%
